Test results: patent US8835377B2, “Oral delivery of peptide pharmaceutical compositions” (UGP Therapeutics, Inc., priority 2004, dated 2014)
Where two headings read alike, the source gives them in different places.

Assay: Pharmacokinetics after duodenal injection of unformulated or formulated Dmt-DALDA in anesthetized rats (plasma, HPLC-UV)
Assay type: in vivo
Settings: for Tmax / Cmax / AUC: Unformulated; for Cmax / AUC: rat; for AUC: trapezoidal rule; for Dmt-DALDA plasma concentration: unformulated
Method: In the experiments represented in the subject Figure, six anesthetized rats (which were color-coded as: red, white, blue, orange, green and yellow) were given 0.7 mL Dmt-DALDA (1.6 mg/mL) with a syringe through a 27 gauge needle into the duodenum. This injection procedure was followed due to the technical difficulty inherent in preparing capsules which can be swallowed by small animals the size of a rat. The intraduodanal injection, therefore, mimics the release of the components of an enteric-coated capsule formulation which would pass through the esophagus and stomach and release its contents in the duodenum. Three of the rats (red, white and blue) were given Unformulated Dmt-DALDA in which there were no additional components (i.e., other than the Dmt-DALDA), while the other three rats (orange, green and yellow) were given Formulated Dmt-DALDA which included, in addition to the Dmt-DALDA, 0.5M citric acid and lauroyl carnitine (10 mg/ml). Samples of blood were taken from the carotid artery through an indwelling catheter before and 5, 15, 30, 60 and 120 minutes after the administration of the respective formulations (i.e., Formulated and Unformulated). The blood samples were centrifuged and the resulting plasma supernatants were stored frozen at −20° C. […] Peptide was detected with an ultraviolet (UV) detector set at a wavelength of 210 nm. […] Table I, moreover, provides the standard deviations for the data obtained regarding each of the test rats, which standard deviations are also indicated in FIG. 1.
Table II (below) summarizes the pharmacokinetic parameters in rats of orally administered unformulated and formulated Dmt-DALDA as those terms are defined above. Cmax refers to the maximum concentration of peptide detected in the rat plasma. The area under the curve (AUC) is a measure of the extent of peptide absorption and is calculated by the trapezoidal rule from a plot of peptide concentration as a function of time. Tmax indicates when the maximum concentration of the Dmt-DALDA in the blood serum was obtained.

Cc1cc(O)cc(C)c1C[C@H](N)C(=O)N[C@H](CCCNC(=N)N)C(=O)N[C@@H](Cc1ccccc1)C(=O)N[C@@H](CCCCN)C(N)=O [unformulated]
Tmax (Avg (n = 3)): 5.00 min | Tmax (in vivo, 1.12 mg, Red rat, read-out: Tmax (converted)): 5 min | Cmax (in vivo, 1.12 mg, Avg (n = 3)): 0.51 µg/mL | AUC (in vivo, 1.12 mg, Avg (n = 3)): 0.064 µg·h/mL | Cmax (in vivo, 1.12 mg, Red rat): 1.54 µg/mL | AUC (in vivo, 1.12 mg, Red rat): 0.192 µg·h/mL | Dmt-DALDA detected in plasma (rats given unformulated Dmt-DALDA): virtually undetectable | Dmt-DALDA plasma concentration (avg of rats, 0 min): 0.00 µg/mL | Dmt-DALDA plasma concentration (avg of rats, 15 min): 0.00 µg/mL | Dmt-DALDA plasma concentration (avg of rats, 30 min): 0.00 µg/mL | Dmt-DALDA plasma concentration (avg of rats, 60 min): 0.00 µg/mL | Dmt-DALDA plasma concentration (avg of rats, 120 min): 0.00 µg/mL | Dmt-DALDA plasma concentration (blue rat, 0 min): 0.00 µg/mL | Dmt-DALDA plasma concentration (blue rat, 5 min): 0.00 µg/mL | Dmt-DALDA plasma concentration (blue rat, 15 min): 0.00 µg/mL | Dmt-DALDA plasma concentration (blue rat, 30 min): 0.00 µg/mL | Dmt-DALDA plasma concentration (blue rat, 60 min): 0.00 µg/mL | Dmt-DALDA plasma concentration (blue rat, 120 min): 0.00 µg/mL | Dmt-DALDA plasma concentration (red rat, 0 min): 0.00 µg/mL | Dmt-DALDA plasma concentration (red rat, 15 min): 0.00 µg/mL | Dmt-DALDA plasma concentration (red rat, 30 min): 0.00 µg/mL | Dmt-DALDA plasma concentration (red rat, 60 min): 0.00 µg/mL | Dmt-DALDA plasma concentration (red rat, 120 min): 0.00 µg/mL | Dmt-DALDA plasma concentration (white rat, 0 min): 0.00 µg/mL | Dmt-DALDA plasma concentration (white rat, 5 min): 0.00 µg/mL | Dmt-DALDA plasma concentration (white rat, 15 min): 0.00 µg/mL | Dmt-DALDA plasma concentration (white rat, 30 min): 0.00 µg/mL | Dmt-DALDA plasma concentration (white rat, 60 min): 0.00 µg/mL | Dmt-DALDA plasma concentration (white rat, 120 min): 0.00 µg/mL
